Activity calls are given as the source filed them. The calls are words filed in the database; no cut-off is given here.
Test system: not listed separately
Test: Cytotoxicity against human PC3M cells after 72 hrs by Alamar blue assay
Format: functional, cell-based
Details: PC-3M

Question: Which IC50 does the source give for `C=C1C(=O)[C@]23C[C@H]1CC[C@H]2[C@]1(C)CCC[C@@](C)(C(=O)OC)[C@H]1C[C@@H]3O` [METHYLGEOPYXIN B] here?
Answer: 1480 nM

Test system: MCF7
Test: Cytotoxicity against human MCF7 cells after 72 hrs by Alamar blue assay
Format: functional, cell-based
Details: MCF7, 72 h

Question: Which IC50 does the source give for `C=C1C(=O)[C@]23C[C@H]1CC[C@H]2[C@]1(C)CCC[C@@](C)(C(=O)OC)[C@H]1C[C@@H]3O` [METHYLGEOPYXIN B] here?
Answer: 630 nM

Test system: MDA-MB-231
Test: Cytotoxicity against human MDA-MB-231 cells after 72 hrs by Alamar blue assay
Format: functional, cell-based
Details: MDA-MB-231, 72 h

Question: Which IC50 does the source give for `C=C1C(=O)[C@]23C[C@H]1CC[C@H]2[C@]1(C)CCC[C@@](C)(C(=O)OC)[C@H]1C[C@@H]3O` [METHYLGEOPYXIN B] here?
Answer: 910 nM

Test system: NCI-H460
Test: Cytotoxicity against human NCI-H460 cells after 72 hrs by Alamar blue assay
Format: functional, cell-based
Details: NCI-H460, 72 h

Question: Which IC50 does the source give for `C=C1C(=O)[C@]23C[C@H]1CC[C@H]2[C@]1(C)CCC[C@@](C)(C(=O)OC)[C@H]1C[C@@H]3O` [METHYLGEOPYXIN B] here?
Answer: 920 nM

Test system: MCF7
Test: Cytotoxicity against human MCF7 cells at 5 uM after 72 hrs by Alamar blue assay
Format: functional, cell-based
Details: not given

Question: For `C=C1C(=O)[C@]23C[C@H]1CC[C@H]2[C@]1(C)[C@@H](OC(C)=O)CC[C@@](C)(C(=O)O)[C@H]1C[C@@H]3OC(C)=O`, which Activity is on record?
Answer: inactive

Question: Which Activity does the source give for `C=C1C(=O)[C@]23C[C@H]1CC[C@H]2[C@]1(C)[C@@H](O)[C@@H](O)C[C@@](C)(C(=O)O)[C@H]1C[C@@H]3O` here?
Answer: inactive

Question: With `C=C1C(=O)[C@]23C[C@H]1CC[C@H]2[C@]1(C)C(=O)CC[C@@](C)(C(=O)O)[C@H]1C[C@@H]3O` as the compound, how does the Activity read?
Answer: inactive

Question: With `COC(=O)[C@]1(C)CC[C@H](O)[C@@]2(C)[C@@H]3CC[C@@H]4C[C@]3(C(=O)[C@@H]4CO)[C@@H](O)C[C@@H]21` as the compound, how does the Activity read?
Answer: inactive

Question: With `C=C1C(=O)[C@]23C[C@H]1C[C@H](O)[C@H]2[C@]1(C)CCC[C@@](C)(C(=O)O)[C@H]1C[C@@H]3O` as the compound, how does the Activity read?
Answer: inactive

Question: With `C[C@]12[C@@H]3CC[C@@H]4C[C@]3(C(=O)[C@@H]4CO)[C@@H](O)C[C@@H]1[C@](C)(C(=O)O)CC[C@@H]2O` as the compound, how does the Activity read?
Answer: inactive

Question: Which Activity does the source give for `C=C1C(=O)[C@]23C[C@H]1CC[C@H]2[C@]1(C)[C@@H](O)CC[C@@](C)(C(=O)O)[C@H]1C[C@@H]3O` here?
Answer: inactive

Test system: MDA-MB-231
Test: Cytotoxicity against human MDA-MB-231 cells at 5 uM after 72 hrs by Alamar blue assay
Format: functional, cell-based
Details: not given

Question: With `C=C1C(=O)[C@]23C[C@H]1CC[C@H]2[C@]1(C)[C@@H](OC(C)=O)CC[C@@](C)(C(=O)O)[C@H]1C[C@@H]3OC(C)=O` as the compound, how does the Activity read?
Answer: inactive

Question: For `C=C1C(=O)[C@]23C[C@H]1CC[C@H]2[C@]1(C)[C@@H](O)[C@@H](O)C[C@@](C)(C(=O)O)[C@H]1C[C@@H]3O`, which Activity is on record?
Answer: inactive

Question: With `C=C1C(=O)[C@]23C[C@H]1CC[C@H]2[C@]1(C)C(=O)CC[C@@](C)(C(=O)O)[C@H]1C[C@@H]3O` as the compound, how does the Activity read?
Answer: inactive

Question: With `COC(=O)[C@]1(C)CC[C@H](O)[C@@]2(C)[C@@H]3CC[C@@H]4C[C@]3(C(=O)[C@@H]4CO)[C@@H](O)C[C@@H]21` as the compound, how does the Activity read?
Answer: inactive

Question: For `C=C1C(=O)[C@]23C[C@H]1C[C@H](O)[C@H]2[C@]1(C)CCC[C@@](C)(C(=O)O)[C@H]1C[C@@H]3O`, which Activity is on record?
Answer: inactive

Question: Which Activity does the source give for `C[C@]12[C@@H]3CC[C@@H]4C[C@]3(C(=O)[C@@H]4CO)[C@@H](O)C[C@@H]1[C@](C)(C(=O)O)CC[C@@H]2O` here?
Answer: inactive

Question: With `C=C1C(=O)[C@]23C[C@H]1CC[C@H]2[C@]1(C)[C@@H](O)CC[C@@](C)(C(=O)O)[C@H]1C[C@@H]3O` as the compound, how does the Activity read?
Answer: inactive

Test system: SF-268
Test: Cytotoxicity against human SF268 cells after 72 hrs by Alamar blue assay
Format: functional, cell-based
Details: SF-268, 72 h

Question: With `C=C1C(=O)[C@]23C[C@H]1CC[C@H]2[C@]1(C)CCC[C@@](C)(C(=O)OC)[C@H]1C[C@@H]3O` [METHYLGEOPYXIN B] as the compound, how does the IC50 read?
Answer: 690 nM

Test system: NCI-H460
Test: Cytotoxicity against human NCI-H460 cells at 5 uM after 72 hrs by Alamar blue assay
Format: functional, cell-based
Details: not given

Question: For `C=C1C(=O)[C@]23C[C@H]1CC[C@H]2[C@]1(C)[C@@H](OC(C)=O)CC[C@@](C)(C(=O)O)[C@H]1C[C@@H]3OC(C)=O`, which Activity is on record?
Answer: inactive

Question: Which Activity does the source give for `C=C1C(=O)[C@]23C[C@H]1CC[C@H]2[C@]1(C)[C@@H](O)[C@@H](O)C[C@@](C)(C(=O)O)[C@H]1C[C@@H]3O` here?
Answer: inactive

Question: For `C=C1C(=O)[C@]23C[C@H]1CC[C@H]2[C@]1(C)C(=O)CC[C@@](C)(C(=O)O)[C@H]1C[C@@H]3O`, which Activity is on record?
Answer: inactive

Question: Which Activity does the source give for `COC(=O)[C@]1(C)CC[C@H](O)[C@@]2(C)[C@@H]3CC[C@@H]4C[C@]3(C(=O)[C@@H]4CO)[C@@H](O)C[C@@H]21` here?
Answer: inactive

Question: With `C=C1C(=O)[C@]23C[C@H]1C[C@H](O)[C@H]2[C@]1(C)CCC[C@@](C)(C(=O)O)[C@H]1C[C@@H]3O` as the compound, how does the Activity read?
Answer: inactive

Question: Which Activity does the source give for `C[C@]12[C@@H]3CC[C@@H]4C[C@]3(C(=O)[C@@H]4CO)[C@@H](O)C[C@@H]1[C@](C)(C(=O)O)CC[C@@H]2O` here?
Answer: inactive

Question: For `C=C1C(=O)[C@]23C[C@H]1CC[C@H]2[C@]1(C)[C@@H](O)CC[C@@](C)(C(=O)O)[C@H]1C[C@@H]3O`, which Activity is on record?
Answer: inactive

Test system: Fibroblast
Test: Induction of heat shock response in mouse fibroblasts expressing GFP at 2.5 uM after overnight incubation by fluorescence assay
Format: functional, cell-based
Details: not given

Question: Which Activity does the source give for `C=C1C(=O)[C@]23C[C@H]1CC[C@H]2[C@]1(C)CCC[C@@](C)(C(=O)OC)[C@H]1C[C@@H]3O` [METHYLGEOPYXIN B] here?
Answer: inactive

Test system: PC-3M
Test: Cytotoxicity against human PC3M cells at 5 uM after 72 hrs by Alamar blue assay
Format: functional, cell-based
Details: not given

Question: Which Activity does the source give for `C=C1C(=O)[C@]23C[C@H]1CC[C@H]2[C@]1(C)[C@@H](OC(C)=O)CC[C@@](C)(C(=O)O)[C@H]1C[C@@H]3OC(C)=O` here?
Answer: inactive

Question: With `C=C1C(=O)[C@]23C[C@H]1CC[C@H]2[C@]1(C)[C@@H](O)[C@@H](O)C[C@@](C)(C(=O)O)[C@H]1C[C@@H]3O` as the compound, how does the Activity read?
Answer: inactive

Question: With `C=C1C(=O)[C@]23C[C@H]1CC[C@H]2[C@]1(C)C(=O)CC[C@@](C)(C(=O)O)[C@H]1C[C@@H]3O` as the compound, how does the Activity read?
Answer: inactive

Question: With `COC(=O)[C@]1(C)CC[C@H](O)[C@@]2(C)[C@@H]3CC[C@@H]4C[C@]3(C(=O)[C@@H]4CO)[C@@H](O)C[C@@H]21` as the compound, how does the Activity read?
Answer: inactive

Question: With `C=C1C(=O)[C@]23C[C@H]1C[C@H](O)[C@H]2[C@]1(C)CCC[C@@](C)(C(=O)O)[C@H]1C[C@@H]3O` as the compound, how does the Activity read?
Answer: inactive

Question: Which Activity does the source give for `C[C@]12[C@@H]3CC[C@@H]4C[C@]3(C(=O)[C@@H]4CO)[C@@H](O)C[C@@H]1[C@](C)(C(=O)O)CC[C@@H]2O` here?
Answer: inactive

Question: For `C=C1C(=O)[C@]23C[C@H]1CC[C@H]2[C@]1(C)[C@@H](O)CC[C@@](C)(C(=O)O)[C@H]1C[C@@H]3O`, which Activity is on record?
Answer: inactive

Test system: SF-268
Test: Cytotoxicity against human SF268 cells at 5 uM after 72 hrs by Alamar blue assay
Format: functional, cell-based
Details: not given

Question: With `C=C1C(=O)[C@]23C[C@H]1CC[C@H]2[C@]1(C)[C@@H](OC(C)=O)CC[C@@](C)(C(=O)O)[C@H]1C[C@@H]3OC(C)=O` as the compound, how does the Activity read?
Answer: inactive

Question: Which Activity does the source give for `C=C1C(=O)[C@]23C[C@H]1CC[C@H]2[C@]1(C)[C@@H](O)[C@@H](O)C[C@@](C)(C(=O)O)[C@H]1C[C@@H]3O` here?
Answer: inactive

Question: For `C=C1C(=O)[C@]23C[C@H]1CC[C@H]2[C@]1(C)C(=O)CC[C@@](C)(C(=O)O)[C@H]1C[C@@H]3O`, which Activity is on record?
Answer: inactive

Question: For `COC(=O)[C@]1(C)CC[C@H](O)[C@@]2(C)[C@@H]3CC[C@@H]4C[C@]3(C(=O)[C@@H]4CO)[C@@H](O)C[C@@H]21`, which Activity is on record?
Answer: inactive

Question: For `C=C1C(=O)[C@]23C[C@H]1C[C@H](O)[C@H]2[C@]1(C)CCC[C@@](C)(C(=O)O)[C@H]1C[C@@H]3O`, which Activity is on record?
Answer: inactive

Question: Which Activity does the source give for `C[C@]12[C@@H]3CC[C@@H]4C[C@]3(C(=O)[C@@H]4CO)[C@@H](O)C[C@@H]1[C@](C)(C(=O)O)CC[C@@H]2O` here?
Answer: inactive

Question: For `C=C1C(=O)[C@]23C[C@H]1CC[C@H]2[C@]1(C)[C@@H](O)CC[C@@](C)(C(=O)O)[C@H]1C[C@@H]3O`, which Activity is on record?
Answer: inactive
